Source: patent publication US10233157B2, “SIK inhibitor for use in a method of treating an inflammatory and/or immune disorder” (Dana-Farber Cancer Institute, Inc., priority 2012, dated 2019)
Entries after “also recorded” stand apart in the source; their conditions may differ.

Tests used:
[1] = tested on: CREB luciferase reporter; test: CREB luciferase reporter assay in HEK293 cells; type: cell-based; conditions: HEK293, 2 μM MRT67307, 10 μM forskolin 2 h
Description: FIG. 5. […] HEK293 cells were co-transfected with DNA encoding a CREB luciferase reporter construct and pTK-RL. […] Luciferase activity was measured with a dual luciferase assay system (Promega) and was normalized to Renilla luciferase activity (n=3, mean±SEM).
HEK293 cells were co-transfected with DNA encoding FLAG-CRTC3 or phosphomutants along with a CREB firefly luciferase reporter construct (pCRE-luc from Stratagene) and pTK-RL which encodes renilla luciferase under the control of a constitutive promoter. At 24 h post-transfection, cells were treated with or without 10 μM KIN112 for a further 24 h. Firefly luciferase activity was measured with a dual luciferase assay system (Promega) and was normalized to Renilla luciferase activity.

[2] = tested on: CRTC3; test: CRTC3 phosphorylation in macrophages (phosphoproteomics, immunoblotting); type: cell-based
Description: RAW264.7 cells were labelled using the Stable Isotope Labelling of Amino Acids in Cell Culture (SILAC) method. […] The cells were lysed in detergent-free lysis buffer (8 M urea, 50 mM Tris pH8.2, 10 mM glycerol 2-phosphate, 50 mM sodium fluoride, 5 mM sodium pyrophosphate, 1 mM EDTA, 1 mM sodium orthovanadate, 10 mM DTT, 1 mM PMSF, 1 μg/ml aprotinin, 1 μg/ml leupeptin), the extract clarified by centrifugation and protein concentration determined using the Bradford method. 2 mg of cell extract protein from each experimental condition were mixed in a 1:1:1 ratio and then alkylated with 50 mM iodoacetamide for 30 min. […] Phosphopeptides from these samples were enriched using a standard Fe^3+-IMAC enrichment protocol^32 and measured by LC-MS/MS. […] The data was analysed using MaxQUANT^33.
Cells were rinsed in ice-cold PBS and extracted in lysis buffer (50 mM Tris/HCl pH 7.4, 1 mM EDTA, 1 mM EGTA, 50 mM NaF, 5 mM sodium pyrophosphate, 10 mM sodium β-glycerol 1-phosphate, 1 mM dithiothreitol, 1 mM sodium orthovanadate, 0.27 M sucrose, 1% (v/v) Triton X-100, 1 μg/ml aprotinin, 1 μg/ml leupeptin and 1 mM phenylmethylsulphonyl fluoride). Cell extracts were clarified by centrifugation at 14000×g for 10 min at 4° C. and protein concentrations were determined using the Bradford assay. […]

Compound: O=C(NCCCNc1nc(Nc2cccc(CN3CCOCC3)c2)ncc1C1CC1)C1CCC1 [MRT67307]
- CREB-dependent luciferase transcription [1]: increases
- phosphorylation of CRTC3 ([2]; 2 μM MRT67307, Pam3CSK4-stimulated macrophages, phosphoproteomic study): robustly dephosphorylated at Ser62, Ser329 and Ser370; also recorded: blocked
- phosphorylation of CRTC3 at Ser370 ([2]; LPS stimulation): blocked
